Assay results reported in the NIST ThermoML archive (doi:10.1016/j.fluid.2011.02.010).
± gives the expanded uncertainty stated by the source.

Test: xn = mol fraction of the nth substance listed
Conditions: 101 kPa, Liquid; for speed of sound: Frequency=2 MHz

CC[NH2+]CC.O=S(=O)([O-])O [diethylammonium hydrogen sulfate] + C[S+](C)[O-]
Conditions | mass density [kg/m3] | speed of sound [m/s] | viscosity [mPa·s]
298.15 K, x1 = 0.0569 | – | 1486 ± 9 | 2.94 ± 0.24
298.15 K, x1 = 0.1196 | – | 1476 ± 9 | 4.13 ± 0.32
298.15 K, x1 = 0.189 | – | 1466 ± 9 | 5.55 ± 0.41
298.15 K, x1 = 0.2461 | – | 1460 ± 9 | 6.77 ± 0.48
298.15 K, x1 = 0.308 | – | 1450 ± 9 | 8.15 ± 0.57
298.15 K, x1 = 0.3756 | – | 1444 ± 9 | 9.66 ± 0.66
298.15 K, x1 = 0.4494 | – | 1434 ± 9 | 11.38 ± 0.77
298.15 K, x1 = 0.5306 | – | 1428 ± 9 | 13.31 ± 0.89
298.15 K, x1 = 0.6201 | – | 1424 ± 9 | 15.49 ± 1
298.15 K, x1 = 0.6852 | – | 1420 ± 9 | 17.12 ± 1.1
298.15 K, x1 = 0.7552 | – | 1420 ± 9 | 18.87 ± 1.2
298.15 K, x1 = 0.8306 | – | 1426 ± 9 | 20.88 ± 1.4
298.15 K, x1 = 0.912 | – | 1428 ± 9 | 23.1 ± 1.5
298.15 K, x1 = 1 | 1028.39 ± 10 | 1432 ± 9 | 25.8 ± 1.7
303.15 K, x1 = 0.0569 | – | 1462 ± 9 | 2.53 ± 0.22
303.15 K, x1 = 0.1196 | – | 1452 ± 9 | 3.48 ± 0.28
303.15 K, x1 = 0.189 | – | 1442 ± 9 | 4.64 ± 0.35
303.15 K, x1 = 0.2461 | – | 1434 ± 9 | 5.62 ± 0.41
303.15 K, x1 = 0.308 | – | 1426 ± 9 | 6.74 ± 0.48
303.15 K, x1 = 0.3756 | – | 1418 ± 9 | 8.01 ± 0.56
303.15 K, x1 = 0.4494 | – | 1410 ± 9 | 9.41 ± 0.65
303.15 K, x1 = 0.5306 | – | 1404 ± 9 | 11.02 ± 0.75
303.15 K, x1 = 0.6201 | – | 1400 ± 9 | 12.83 ± 0.86
303.15 K, x1 = 0.6852 | – | 1398 ± 9 | 14.18 ± 0.95
303.15 K, x1 = 0.7552 | – | 1398 ± 9 | 15.65 ± 1
303.15 K, x1 = 0.8306 | – | 1400 ± 9 | 17.27 ± 1.1
303.15 K, x1 = 0.9121 | – | 1404 ± 9 | 19.14 ± 1.3
303.15 K, x1 = 1 | 1023.97 ± 10 | 1408 ± 9 | 21.3 ± 1.4
308.15 K, x1 = 0.0569 | – | 1446 ± 9 | 2.33 ± 0.21
308.15 K, x1 = 0.1196 | – | 1436 ± 9 | 3.16 ± 0.26
308.15 K, x1 = 0.189 | – | 1428 ± 9 | 4.12 ± 0.32
308.15 K, x1 = 0.2461 | – | 1418 ± 9 | 4.94 ± 0.37
308.15 K, x1 = 0.308 | – | 1410 ± 9 | 5.85 ± 0.43
308.15 K, x1 = 0.3756 | – | 1402 ± 9 | 6.86 ± 0.49
308.15 K, x1 = 0.4494 | – | 1396 ± 8 | 8.02 ± 0.56
308.15 K, x1 = 0.5306 | – | 1388 ± 8 | 9.35 ± 0.65
308.15 K, x1 = 0.6201 | – | 1384 ± 8 | 10.89 ± 0.74
308.15 K, x1 = 0.6852 | – | 1384 ± 8 | 12.06 ± 0.82
308.15 K, x1 = 0.7552 | – | 1382 ± 8 | 13.39 ± 0.9
308.15 K, x1 = 0.8306 | – | 1384 ± 9 | 14.84 ± 0.99
308.15 K, x1 = 0.9121 | – | 1388 ± 9 | 16.38 ± 1.1
308.15 K, x1 = 1 | 1020.54 ± 10 | 1392 ± 9 | 18.1 ± 1.2
318.15 K, x1 = 0.0569 | – | 1414 ± 9 | 2 ± 0.19
318.15 K, x1 = 0.1196 | – | 1404 ± 8 | 2.63 ± 0.23
318.15 K, x1 = 0.189 | – | 1392 ± 8 | 3.33 ± 0.27
318.15 K, x1 = 0.2461 | – | 1386 ± 8 | 3.93 ± 0.31
318.15 K, x1 = 0.308 | – | 1378 ± 8 | 4.59 ± 0.35
318.15 K, x1 = 0.3756 | – | 1370 ± 8 | 5.34 ± 0.39
318.15 K, x1 = 0.4494 | – | 1362 ± 8 | 6.22 ± 0.45
318.15 K, x1 = 0.5306 | – | 1356 ± 8 | 7.19 ± 0.51
318.15 K, x1 = 0.6201 | – | 1350 ± 8 | 8.32 ± 0.58
318.15 K, x1 = 0.6852 | – | 1348 ± 8 | 9.16 ± 0.63
318.15 K, x1 = 0.7552 | – | 1346 ± 8 | 10.1 ± 0.69
318.15 K, x1 = 0.8306 | – | 1348 ± 8 | 11.1 ± 0.76
318.15 K, x1 = 0.9121 | – | 1352 ± 8 | 12.3 ± 0.83
318.15 K, x1 = 1 | 1012.68 ± 10 | 1356 ± 8 | 13.61 ± 0.92
328.15 K, x1 = 0.0569 | – | 1400 ± 8 | 1.6 ± 0.16
328.15 K, x1 = 0.1196 | – | 1406 ± 8 | 2.24 ± 0.2
328.15 K, x1 = 0.189 | – | 1392 ± 8 | 2.95 ± 0.25
328.15 K, x1 = 0.2461 | – | 1382 ± 8 | 3.51 ± 0.28
328.15 K, x1 = 0.308 | – | 1372 ± 8 | 4.12 ± 0.32
328.15 K, x1 = 0.3756 | – | 1362 ± 8 | 4.77 ± 0.36
328.15 K, x1 = 0.4494 | – | 1352 ± 8 | 5.46 ± 0.4
328.15 K, x1 = 0.5306 | – | 1342 ± 8 | 6.21 ± 0.45
328.15 K, x1 = 0.6201 | – | 1332 ± 8 | 7.02 ± 0.5
328.15 K, x1 = 0.6852 | – | 1326 ± 8 | 7.57 ± 0.53
328.15 K, x1 = 0.7552 | – | 1322 ± 8 | 8.17 ± 0.57
328.15 K, x1 = 0.8306 | – | 1320 ± 8 | 8.8 ± 0.61
328.15 K, x1 = 0.9121 | – | 1322 ± 8 | 9.48 ± 0.66
328.15 K, x1 = 1 | 1004.83 ± 10 | 1324 ± 8 | 10.2 ± 0.7
